Source: US20210284621A1 (priority 2018, published 2021)

Columns and labels:
CB1 receptor [1] = target: T1, CB1 receptor (Homo sapiens, UniProt P21554); assay: CB1 competitive radioligand binding assay ([3H] SR141716A); parameters: expressed in transfected cells; host or cells: Chem-1 cells; details: for inhibition at 0.5 µM: 0.5 μM compound, 2.0 nM [3H] SR141716A, 90 min 37° C.
Description: (§1) J Med Chem. 41(26): 5177-5187 (1998); and Munro S., et al. Molecular characterization of a peripheral receptor for cannabinoids. Nature 365:61-65 (1993).
CB1 Radioligand Binding Assay: A compound of the invention (0.5 μM in 1% DMSO) was incubated with Chem-1 cells expressing human recombinant CB1 receptor in buffer (50 mM HEPES, pH 7.4, 5 mM MgCl2, 1 mM CaCl2, 0.2% BSA) for 90 minutes at 37° C. in the presence of 2.0 nM [H^3] SR141716A (CB1 radioligand). % Inhibition was determined as a function of radioligand binding to the CB1 receptor.

CB2 receptor [2] = target: T2, CB2 receptor (Homo sapiens, UniProt P34972); assay: CB2 competitive radioligand binding assay ([3H] WIN-55,212-2); parameters: expressed in transfected cells; host or cells: CHO-K1 cells; details: for inhibition at 0.05 µM: 0.05 μM compound, 2.4 nM [3H] WIN-55,212-2, 90 min 37° C.
T2 sequence (P34972 whole entry): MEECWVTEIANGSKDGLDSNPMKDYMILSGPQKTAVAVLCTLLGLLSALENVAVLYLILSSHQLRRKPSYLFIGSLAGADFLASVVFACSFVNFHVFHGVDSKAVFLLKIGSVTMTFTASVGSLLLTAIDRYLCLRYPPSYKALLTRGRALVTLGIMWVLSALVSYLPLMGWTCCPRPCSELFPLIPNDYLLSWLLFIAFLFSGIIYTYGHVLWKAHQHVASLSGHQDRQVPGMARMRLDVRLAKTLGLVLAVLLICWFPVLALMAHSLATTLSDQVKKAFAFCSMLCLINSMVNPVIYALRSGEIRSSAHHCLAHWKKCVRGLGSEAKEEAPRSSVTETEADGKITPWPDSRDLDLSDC
Description: as §1
CB2 Radioligand Binding Assay: A compound of the invention (0.05 μM in 1% DMSO) was incubated with CHO-K1 cells expressing human recombinant CB2 receptor in buffer (20 mM HEPES, pH 7.0, 0.5% BSA) for 90 minutes at 37° C. in the presence of 2.4 nM [H^3] WIN-55,212-2 (CB2 radioligand). % Inhibition was determined as a function of radioligand binding to the […].

CB2 receptor [3] = target: T2, CB2 receptor; assay: cell-based; parameters: host or cells: cAMP Hunter cell lines; details: PathHunter agonist mode; read-out: CB2 Activity (β-Arrestin)
Description: (§2) The PathHunter® β-Arrestin assay monitors the activation of a GPCR in a homogenous, non-imaging assay format using a technology developed by DiscoverX called Enzyme Fragment Complementation (EFC) with β-galactosidase (3-Gal) as the functional reporter. […] EA is fused to β-Arrestin and PK is fused to the GPCR of interest.
(§3) PathHunter cell lines were expanded from freezer stocks according to standard procedures. Cells were seeded in a total volume of 20 μL into white walled, 384-well microplates and incubated at 37° C. for the appropriate time prior to testing. For agonist activity determination, cells were incubated with sample to induce response. Intermediate dilution of sample stocks was performed to generate 5× sample in assay buffer. 5 μL of 5× sample was added to cells and incubated at 37° C. or room temperature for 90 to 180 minutes. Vehicle concentration was 1%. Assay signal was generated through a single addition of 12.5 or 15 μL (50% v/v) of PathHunter Detection reagent cocktail, followed by a one hour incubation at room temperature. Microplates were read following signal generation with a PerkinElmer Envision™ instrument for chemiluminescent signal detection. Compound activity was analyzed using CBIS data analysis suite (ChemInnovation, CA). For agonist assays, percentage activity was calculated using the following formula: % Activity=100%×(mean RLU of test sample− mean RLU of vehicle control)/(mean MAX control ligand− mean RLU of vehicle control).

CB1 receptor [4] = target: T1, CB1 receptor; assay: cell-based; parameters: host or cells: PathHunter cell lines; details: PathHunter agonist mode; read-out: CB1 Activity (β-Arrestin)
Description: as §2, §3

LPS-induced PBMCs = assay: Inflammatory cytokine release from LPS-induced PBMCs (Luminex); type: cell-based, human; details: fold change from LPS-treated PBMCs, compounds 10 μM (DEX 1 μg/ml) 2 h, then LPS 0.1 μg/ml 24 h, negative = reduced
Description: Compounds of the invention were assayed for their effect on inflammatory cytokine release from lipopolysaccharides (LPS)-induced PBMCs, isolated from a human blood sample, the results of which are provided in Table 7 as fold change. Exemplary methods for quantifying secretion of inflammatory cytokines in PBMCs are known in the art, for example, as described in Hailer et al., Infection and Immunity. 68(2):752-759 (2000); and Merlini et al., Frontiers in Immunology. 7:614 (2016); each of which is incorporated herein by reference with respect to methods for evaluating cytokine release in PBMCs.
In brief, human blood samples from healthy volunteers were collected and PBMCs were isolated. PBMCs were cultured and each compound was assayed in triplicate at a final concentration of 10 μM for 2 hours. 1 μg/ml dexamethasone (DEX) served as a positive control. LPS was added at a final concentration of 0.1 μg/ml and further incubated for 24 hours. At the end of the incubation, the supernatants were collected and the levels of a panel of secreted cytokines were measured by a Human Magnetic Luminex® assay (R&D). The results in Table 7 are presented as a fold change from LPS-treated PBMCs. Reduced levels are expressed by negative values. OOR denotes values that are out of the standard curve range for the specific cytokine and thus, could not be accurately measured. Cytotoxicity was also determined. Compounds with cytotoxicity ≥50% was considered cytotoxic. Baseline cytotoxicity of untreated PBMCs was 17% and all compounds presented in Table 7 induced cytotoxicity below 25%.

[5] = OOR = out of standard curve range

T1 sequence (P21554 whole entry): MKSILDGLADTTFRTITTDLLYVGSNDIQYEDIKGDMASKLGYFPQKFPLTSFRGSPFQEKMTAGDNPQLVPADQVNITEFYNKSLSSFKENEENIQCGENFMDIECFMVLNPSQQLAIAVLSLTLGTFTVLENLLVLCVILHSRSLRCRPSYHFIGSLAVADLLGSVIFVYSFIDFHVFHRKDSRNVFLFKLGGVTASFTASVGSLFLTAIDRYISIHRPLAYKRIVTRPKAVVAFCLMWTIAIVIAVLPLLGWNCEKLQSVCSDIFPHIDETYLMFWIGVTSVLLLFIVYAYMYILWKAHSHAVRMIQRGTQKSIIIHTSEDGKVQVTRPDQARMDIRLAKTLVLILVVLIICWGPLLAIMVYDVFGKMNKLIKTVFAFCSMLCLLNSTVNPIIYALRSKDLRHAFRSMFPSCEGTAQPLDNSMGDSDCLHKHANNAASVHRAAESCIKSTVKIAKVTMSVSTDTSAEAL

SMILES	inhibition at 0.5 µM (CB1 receptor [1])	inhibition at 0.05 µM (CB2 receptor [2])	Ki (CB1 receptor [1])	Ki (CB2 receptor [2])	Fold Selectivity (CB1/CB2) (CB2 receptor [2]; Table 3, ratio of Ki CB1/CB2)	also measured
CCCCCCC(C)(C)c1cc(O)c2c(c1)OC(C)(C)[C@@H]1CC=C(C(N)=O)C[C@@H]21 [Compound 4, (6aR,10aR)-1-Hydroxy-6,6-dimethyl-3-(2-methyloctan-2-yl)-6a,7,10,10a-tetrahydro-6H-benzo[c]chromene-9-carboxamide]	70%	57%	–	–	–	–
CCCCCCC(C)(C)c1cc(OC)c2c(c1)OC(C)(C)[C@@H]1CC=C(C(=O)NCCO)C[C@@H]21 [Compound 7, (6aR,10aR)-N-(2-Hydroxyethyl)-1-methoxy-6,6-dimethyl-3-(2-methyloctan-2-yl)-6a,7,10,10a-tetrahydro-6H-benzo[c]chromene-9-carboxamide]	21%	11%	–	–	–	–
CCCCCCCC(C)(C)c1cc(O)c2c(c1)OC(C)(C)[C@@H]1CC=C(C(=O)O)C[C@@H]21 [Compound 9, (6aR,10aR)-1-Hydroxy-6,6-dimethyl-3-(2-methylnonan-2-yl)-6a,7,10,10a-tetrahydro-6H-benzo[c]chromene-9-carboxylic acid]	-8%	18%	–	–	–	–
CCCCCCC(C)(C)c1cc(O)c2c(c1)OC(C)(C)[C@@H]1CC=C(C(=O)Oc3ccc(C(N)=S)cc3)C[C@@H]21 [Compound 10, 4-Carbamothioylphenyl (6aR,10aR)-1-hydroxy-6,6-dimethyl-3-(2-methyloctan-2-yl)-6a,7,10,10a-tetrahydro-6H-benzo[c]chromene-9-carboxylate]	7%	11%	–	–	–	–
CCCCCCC(C)(C)c1cc(O)c2c(c1)OC(C)(C)[C@@H]1CC=C(C(=O)N[C@H]3CC[C@H](O)CC3)C[C@@H]21 [Compound 17, (6aR,10aR)-1-Hydroxy-N-(trans-4-hydroxycyclohexyl)-6,6-dimethyl-3-(2-methyloctan-2-yl)-6a,7,10,10a-tetrahydro-6H-benzo[c]chromene-9-carboxamide]	23%	8%	–	–	–	–
CCCCCCC(C)(C)c1cc(O)c2c(c1)OC(C)(C)[C@@H]1CC=C(C(=O)N[C@H]3CC[C@@H](O)CC3)C[C@@H]21 [Compound 18, (6aR,10aR)-1-Hydroxy-N-(cis-4-hydroxycyclohexyl)-6,6-dimethyl-3-(2-methyloctan-2-yl)-6a,7,10,10a-tetrahydro-6H-benzo[c]chromene-9-carboxamide]	5%	26%	–	–	–	–
CCCCCCC(C)(C)c1cc(OC(C)=O)c2c(c1)OC(C)(C)[C@@H]1CC=C(C#N)C[C@@H]21 [Compound 19, (6aR,10aR)-9-Cyano-6,6-dimethyl-3-(2-methyloctan-2-yl)-6a,7,10,10a-tetrahydro-6H-benzo[c]chromen-1-yl acetate]	111%	115%	6.8 nM	1.9 nM	–	Fold Selectivity (CB1/CB2) (CB2 receptor [2]; Table 2, ratio of Ki CB1/CB2): 4
CC(C)(CCCCCC(=O)O)c1cc(O)c2c(c1)OC(C)(C)[C@@H]1CC=C(C(=O)O)C[C@@H]21 [Compound 40]	–	–	–	–	–	EC50 (CB2 receptor [3]): > 1000 nM; EC50 (CB1 receptor [4]): > 10 µM
CCCCCCC(C)(C)c1cc(O)c2c(c1)OC(C)(C)[C@@H]1CC=C(C(=O)NC34CC5CC(CC(C5)C3)C4)C[C@@H]21 [Compound 42, (6aR,10aR)-N-(adamantan-1-yl)-1-hydroxy-6,6-dimethyl-3-(2-methyloctan-2-yl)-6a,7,10,10a-tetrahydro-6H-benzo[c]chromene-9-carboxamide]	–	–	59.5 nM	175 nM	0.3	–
CCCCCCC(C)(C)c1cc(O)c2c(c1)OC(C)(C)[C@@H]1CC=C(C(=O)NC34CC5CC(CC(O)(C5)C3)C4)C[C@@H]21 [Compound 43, (6aR,10aR)-1-hydroxy-N-(3-hydroxyadamantan-1-yl)-6,6-dimethyl-3-(2-methyloctan-2-yl)-6a,7,10,10a-tetrahydro-6H-benzo[c]chromene-9-carboxamide]	–	–	891 nM	75.6 nM	11.8	–
CCCCCCC(C)(C)c1cc(O)c2c(c1)OC(C)(C)[C@@H]1CC=C(C(=O)N[C@@H](C)CCO)C[C@@H]21 [Compound 98, (6aR,10aR)-1-hydroxy-N—((S)-4-hydroxybutan-2-yl)-6,6-dimethyl-3-(2-methyloctan-2-yl)-6a,7,10,10a-tetrahydro-6H-benzo[c]chromene-9-carboxamide]	–	–	320 nM	10 nM	32.0	–
CCCC(C)(C)c1cc(O)c2c(c1)OC(C)(C)[C@@H]1CC=C(C(=O)NC(C)(C)C(F)(F)F)C[C@@H]21 [Compound 101]	–	–	> 5000 nM	84 nM	>60	–
CCCCCCC(C)(C)c1cc(O)c2c(c1)OC(C)(C)[C@@H]1CC=C(C(=O)NC#N)C[C@@H]21 [Compound 106, (6aR,10aR)-N-cyano-1-hydroxy-6,6-dimethyl-3-(2-methyloctan-2-yl)-6a,7,10,10a-tetrahydro-6H-benzo[c]chromene-9-carboxamide]	–	–	803 nM	810 nM	1.0	–
CC(C)(CCCCCC(=O)O)c1cc(O)c2c(c1)OC(C)(C)[C@@H]1CC=C(C(=O)O)C[C@@H]21 [Compound 111, (6aR,10aR)-3-(7-carboxy-2-methylheptan-2-yl)-1-hydroxy-6,6-dimethyl-6a,7,10,10a-tetrahydro-6H-benzo[c]chromene-9-carboxylic acid]	–	–	> 3000 nM	> 3000 nM	–	–
CCCCCCC(C)(C)c1c(Cl)c(O)c2c(c1Cl)OC(C)(C)[C@@H]1CC=C(C(=O)O)C[C@@H]21 [Compound 113, (6aR,10aR)-2,4-dichloro-1-hydroxy-6,6-dimethyl-3-(2-methyloctan-2-yl)-6a,7,10,10a-tetrahydro-6H-benzo[c]chromene-9-carboxylic acid]	–	–	> 3000 nM	> 3000 nM	–	–
C[C@@H]1C[C@H]2[C@@H]3CCC4=CC(=O)C=C[C@]4(C)[C@@]3(F)[C@@H](O)C[C@]2(C)[C@@]1(O)C(=O)CO [DEX, dexamethasone, reference compound]	–	–	–	–	–	IL17A (LPS-induced PBMCs): −1.5 fold change; IL-1β (LPS-induced PBMCs): −3.8 fold change; IL-4 (LPS-induced PBMCs): −1.5 fold change; IL-6 (LPS-induced PBMCs): −3.9 fold change; IL-8 (LPS-induced PBMCs): −1.0 fold change; IL-10 (LPS-induced PBMCs): −2.0 fold change; MCP-1 (LPS-induced PBMCs): −1.7 fold change; TNFα (LPS-induced PBMCs): −6.0 fold change; IL-12 (p70) (LPS-induced PBMCs; [5]): −4.5 fold change; L-31 (LPS-induced PBMCs; [5]): −1.6 fold change
